From the supplement of paper PMC13380429

Assays:
Settings in all cases: 72 h
HepG2 [1] = assay: relative viability EC50 (midpoint between 100% and the lowest measured viability); higher = less toxic
Calu-3 [2] = assay: as above
U2OS [3] = assay: as above
Vero E6 [4] = assay: as above
Caco-2 [5] = assay: as above
HepG2 [6] = assay: drug sensitivity score (DSS) for viability; higher = more toxic; extreme values may be limits of the assay
Calu-3 [7] = assay: as above
U2OS [8] = assay: as above
Vero E6 [9] = assay: as above
Caco-2 [10] = assay: as above
HepG2 [11] = assay: cell viability relative to DMSO; higher = less toxic
Calu-3 [12] = assay: as above
U2OS [13] = assay: as above
Vero E6 [14] = assay: as above
Caco-2 [15] = assay: as above

SMILES	relative viability EC50 (HepG2 [1]) [µM]	relative viability EC50 (Calu-3 [2]) [µM]	relative viability EC50 (U2OS [3]) [µM]	relative viability EC50 (Vero E6 [4]) [µM]	relative viability EC50 (Caco-2 [5]) [µM]	drug sensitivity score (HepG2 [6])	drug sensitivity score (Calu-3 [7])	drug sensitivity score (U2OS [8])	drug sensitivity score (Vero E6 [9])	drug sensitivity score (Caco-2 [10])	cell viability (HepG2 [11]; 1 nM) [%]	cell viability (HepG2 [11]; 10 nM) [%]	cell viability (HepG2 [11]; 100 nM) [%]	cell viability (HepG2 [11]; 1000 nM) [%]	cell viability (HepG2 [11]; 10000 nM) [%]	cell viability (Calu-3 [12]; 1 nM) [%]	cell viability (Calu-3 [12]; 10 nM) [%]	cell viability (Calu-3 [12]; 100 nM) [%]	cell viability (Calu-3 [12]; 1000 nM) [%]	cell viability (Calu-3 [12]; 10000 nM) [%]	cell viability (U2OS [13]; 1 nM) [%]	cell viability (U2OS [13]; 10 nM) [%]	cell viability (U2OS [13]; 100 nM) [%]	cell viability (U2OS [13]; 1000 nM) [%]	cell viability (U2OS [13]; 10000 nM) [%]	cell viability (Vero E6 [14]; 1 nM) [%]	cell viability (Vero E6 [14]; 10 nM) [%]	cell viability (Vero E6 [14]; 100 nM) [%]	cell viability (Vero E6 [14]; 1000 nM) [%]	cell viability (Vero E6 [14]; 10000 nM) [%]	cell viability (Caco-2 [15]; 1 nM) [%]	cell viability (Caco-2 [15]; 10 nM) [%]	cell viability (Caco-2 [15]; 100 nM) [%]	cell viability (Caco-2 [15]; 1000 nM) [%]	cell viability (Caco-2 [15]; 10000 nM) [%]
CCC(CC)(NC(=O)C(C)C)C(=O)N[C@@H](CCCNC(=N)N)C(=O)NC1(C(=O)NC(c2ccc(F)cc2)c2ccc(F)cc2)CCCC1 [MM-102]	> 10	> 10	> 10	> 10	> 10	0	0	0	0	0	100	96.8	98.4	105	114	98.1	85.4	92.5	97.8	97.8	97.8	94.9	101	95.8	99.2	94.2	101	97.3	99.5	106	99	93.9	101	94.6	102
CNC(=O)c1ccccc1Nc1nc(Nc2ccc(N3CCOCC3)cc2OC)ncc1Cl [NVP-TAE226]	0.356	0.706	1.26	0.645	0.295	13.5	6.9	7.9	6.8	9.8	114	99.6	91.3	33.1	20.8	93.1	90.8	86.2	74.5	41.9	99.9	100	94.1	69	22	99.6	97.7	96.3	66.7	48.4	96	104	88.3	54.1	44.2
N[C@H]1C[C@@H]1c1ccc(-c2cccc(O)c2)cc1 [OG-L002]	> 10	> 10	> 10	> 10	> 10	0	0	0	0	0	103	97.6	100	115	114	108	106	99.3	95.3	108	101	94.3	98.3	97.8	96.4	96	103	95.9	104	107	104	100	102	101	105
